In this assay the target is T1, Y2 receptors (Homo sapiens, UniProt P49146).
T1 construct: KAN-Ts endogenously expressing Y2 receptors; endogenous in cells; host or cells: KAN-Ts cells (membrane preparation)
T1 sequence (P49146 1-381): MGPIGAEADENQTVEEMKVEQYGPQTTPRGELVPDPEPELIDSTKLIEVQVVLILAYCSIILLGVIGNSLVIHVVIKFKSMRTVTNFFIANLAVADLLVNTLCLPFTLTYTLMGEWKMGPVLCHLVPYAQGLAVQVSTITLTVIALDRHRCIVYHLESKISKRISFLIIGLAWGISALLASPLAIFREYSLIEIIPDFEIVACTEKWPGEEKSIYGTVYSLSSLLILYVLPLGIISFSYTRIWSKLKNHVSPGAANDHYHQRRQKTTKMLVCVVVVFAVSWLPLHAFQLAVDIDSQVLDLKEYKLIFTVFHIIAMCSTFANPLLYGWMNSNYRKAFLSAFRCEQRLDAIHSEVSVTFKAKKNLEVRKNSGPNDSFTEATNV
Description: Radioligand binding assay, [125I]PYY, KAN-Ts membranes. The procedure:
Radioligand Binding Assay
KAN-Ts endogenously expressing Y2 receptors were used for the radioligand binding assay. Cells were grown to confluence on 150 cm^2 tissue culture plates, washed with phosphate-buffered saline (PBS), and scraped into 50 mL tubes. After centrifugation, the supernatant was aspirated, and the pellets frozen and stored at −80° C. Thawed pellets were homogenized with a polytron tissue grinder for 15 sec in 20 mM Tris-HCl, 5 mM EDTA. The homogenate was centrifuged at 800×g for 5 min and the collected supernatant was recentrifuged at 25000×g for 25 min. The resulting pellet was resuspended in binding buffer (20 mM HEPES, 120 mM NaCl, 0.22 mM KH2PO4, 1.3 mM CaCl2, 0.8 mM MgSO4). Membranes were incubated with [^125I]PYY (80 pM) in the presence or absence of test compound for 1 h at rt. The reaction was stopped by filtration through GF/C filter plates pre-soaked in 0.3% polyethylenimine and subsequently washed with Tris 50 mM, 5 mM EDTA buffer. Plates were dried for 1 h in a 55° C. oven, scintillation fluid was added and the radioactivity was counted in a Packard TopCount. Specific binding to the NPY receptor subtypes was determined by radioactivity that was bound in the presence of […] NPY. Each binding experiment was repeated three to eight times, each in duplicate. IC50 values (i.e. concentration of unlabelled peptide or antagonist required to compete for 50% of specific binding to the radioligand) were calculated using the GraphPad Prism software (GraphPad Software Inc., San Diego Calif.) with a fit to a sigmoidal dose response curve. Data were expressed as pIC50 values where pIC50=−log IC50.

[1] abbreviates: membranes of KAN-Ts cells endogenously expressing Y2 receptors, [125I]PYY (80 pM), 1 h at rt.

By IC50 is commonly meant the concentration that inhibits the measured activity by half. A low value points to greater potency in that assay.

Structures are written as SMILES. Read-outs that look alike come from different tables or passages of the source.

Consider `CC(=O)N1CCc2ccc(N(C(=O)/C=C/c3ccccc3)C3CCN(C(=O)c4ccccc4)CC3)cc21` [Example 39, trans-N-(1-Acetyl-2,3-dihydro-1H-indol-6-yl)-N-(1-benzoyl-piperidin-4-yl)-3-phenyl-acrylamide], for which the IC50 is 29 µM.
Under setting [1], `CC(=O)N1CCc2ccc(N(C(=O)/C=C/c3ccccc3)C3CCCN(Cc4ccccc4)C3)cc21` (stereo not drawn) [Example 45, trans-N-(1-Acetyl-2,3-dihydro-1H-indol-6-yl)-N-(1-benzyl-piperidin-3-yl)-3-phenyl-acrylamide] registered a 50% inhibitory concentration (IC50) of 16 µM.
Under setting [1], `CC(=O)N1CCc2ccc(N(C(=O)/C=C/c3ccccc3)C3CCN(Cc4ccccc4)C3)cc21` (stereo not drawn) [Example 46, trans-N-(1-Acetyl-2,3-dihydro-1H-indol-6-yl)-N-(1-benzyl-pyrrolidin-3-yl)-3-phenyl-acrylamide] gave an IC50 of 18 µM.
Compound `CC(=O)N1CCc2ccc(N(CCCNCc3ccccc3)C(=O)/C=C/c3ccccc3)cc21` [Example 47, trans-N-(1-Acetyl-2,3-dihydro-1H-indol-6-yl)-N-(3-benzylamino-propyl)-3-phenyl-acrylamide] displayed an IC50 under setting [1] of 12 µM.
Same read-out and setting: the figure for `C=CCN(CCCN(C(=O)/C=C/c1ccccc1)c1ccc2c(c1)N(C(C)=O)CC2)Cc1ccccc1` [Example 48, trans-N-(1-Acetyl-2,3-dihydro-1H-indol-6-yl)-N-[3-(allyl-benzyl-amino)-propyl]-3-phenyl-acrylamide] is 12 µM.
